From publication PMC4698665, “Functional Analysis of Esterase TCE2 Gene from Tetranychus cinnabarinus (Boisduval) involved in Acaricide Resistance” (Scientific Reports, 2016)

Experiments:
[1] = molecular target: T1, recombinant TCE2 (Tetranychus cinnabarinus, UniProt B3TFG7); experiment: Dixon plot, colorimetric esterase assay (Fast blue B); assay type: biochemical
T1 construct: pCold II (vector His tag), E. coli BL21(DE3), Ni-NTA purified; about 63 kDa
T1 sequence (B3TFG7 24-560): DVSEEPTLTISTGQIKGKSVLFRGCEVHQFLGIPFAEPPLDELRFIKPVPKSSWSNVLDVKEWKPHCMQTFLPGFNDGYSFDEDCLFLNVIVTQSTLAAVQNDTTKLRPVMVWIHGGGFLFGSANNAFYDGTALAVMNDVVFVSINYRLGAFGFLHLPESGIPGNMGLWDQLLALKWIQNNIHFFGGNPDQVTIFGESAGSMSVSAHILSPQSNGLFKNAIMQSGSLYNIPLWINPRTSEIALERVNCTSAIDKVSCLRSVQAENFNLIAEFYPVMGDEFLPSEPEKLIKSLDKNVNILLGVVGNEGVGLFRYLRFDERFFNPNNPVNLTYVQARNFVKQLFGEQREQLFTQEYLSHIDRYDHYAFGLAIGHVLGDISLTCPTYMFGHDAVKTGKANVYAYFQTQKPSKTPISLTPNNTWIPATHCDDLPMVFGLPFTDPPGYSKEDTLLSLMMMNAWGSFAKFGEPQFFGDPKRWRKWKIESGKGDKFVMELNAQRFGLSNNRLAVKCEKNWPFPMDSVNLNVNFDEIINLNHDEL

[2] = molecular target: T1, recombinant TCE2; experiment: colorimetric esterase inhibition assay, microplate (Fast blue B, […] nm); assay type: biochemical
[3] = substrate: CC(=O)Oc1cccc2ccccc12; experiment: purified protein; assay type: biochemical, Tetranychus cinnabarinus; conditions: 0.04 M PBS pH 7.4, 30 °C, 10 min

Molecule | Ki [1] [µM] | IC50 [2] [µM] | Km [3] [µM] | Vmax [3] [µmol/min/mg]
COCCOC(=O)C(C#N)(C(=O)c1ccccc1C(F)(F)F)c1ccc(C(C)(C)C)cc1 (stereo not drawn) [cyflumetofen] | 182 ± 17.7 | 129 ± 12.7 |  | 
CC1(C)C(C(=O)OC(C#N)c2cccc(Oc3ccccc3)c2)C1(C)C (stereo not drawn) [fenpropathrin] | 356 ± 35.4 | 235 ± 15.3 |  | 
recombinant TCE2 (Tetranychus cinnabarinus) (protein, pCold II (vector His tag), E. coli BL21(DE3), Ni-NTA purified; about 63 kDa) DVSEEPTLTISTGQIKGKSVLFRGCEVHQFLGIPFAEPPLDELRFIKPVPKSSWSNVLDVKEWKPHCMQTFLPGFNDGYSFDEDCLFLNVIVTQSTLAAVQNDTTKLRPVMVWIHGGGFLFGSANNAFYDGTALAVMNDVVFVSINYRLGAFGFLHLPESGIPGNMGLWDQLLALKWIQNNIHFFGGNPDQVTIFGESAGSMSVSAHILSPQSNGLFKNAIMQSGSLYNIPLWINPRTSEIALERVNCTSAIDKVSCLRSVQAENFNLIAEFYPVMGDEFLPSEPEKLIKSLDKNVNILLGVVGNEGVGLFRYLRFDERFFNPNNPVNLTYVQARNFVKQLFGEQREQLFTQEYLSHIDRYDHYAFGLAIGHVLGDISLTCPTYMFGHDAVKTGKANVYAYFQTQKPSKTPISLTPNNTWIPATHCDDLPMVFGLPFTDPPGYSKEDTLLSLMMMNAWGSFAKFGEPQFFGDPKRWRKWKIESGKGDKFVMELNAQRFGLSNNRLAVKCEKNWPFPMDSVNLNVNFDEIINLNHDEL |  |  | 30.5 ± 5.9 | 0.448
